# Measured values reported in patent US20100311714A1, “1H-IMIDAZO[4,5-c]QUINOLINONE COMPOUNDS” (priority 2009, published 2010).
# Test system: PKB Ser473 phosphorylation in Rat1-myr-HA-p110 beta cells
# Test: Reverse protein array, PKB Ser473 phosphorylation in Rat1-myr-HA-p110 beta cells
# Assay type: cell-based
# Conditions: Rattus norvegicus, 0.5 h, 30 minutes compound incubation, read-out: p-PKB/IC50_beta
row,IC50 [nM],SMILES
1,8.6,"Cc1nc(N2CCC(O)C2)ccc1-n1c(=O)n(C)c2cnc3ccc(-c4cnc(N)c(C(F)(F)F)c4)cc3c21 (stereo not shown) [Example 27.3, 8-(6-Amino-5-trifluoromethyl-pyridin-3-yl)-1-[6-(3-hydroxy-pyrrolidin-1-yl)-2-methyl-pyridin-3-yl]-3-methyl-1,3-dihydro-imidazo[4,5-c]quinolin-2-one]"
2,6.9,"CCNc1cc(-c2ccc3ncc4c(c3c2)n(-c2ccc(N(C)CCO)nc2C)c(=O)n4C)cnc1CO [Example 26.3, 8-(5-Ethylamino-6-hydroxymethyl-pyridin-3-yl)-1-{6-[(2-hydroxy-ethyl)-methyl-amino]-2-methyl-pyridin-3-yl}-3-methyl-1,3-dihydro-imidazo[4,5-c]quinolin-2-one]"
3,22.8,"Cc1nc(F)ccc1-n1c(=O)n(C)c2cnc3ccc(-c4cncc(N5CCC5)c4)cc3c21 [Example 7.6, 8-(5-Azetidin-1-yl-pyridin-3-yl)-1-(6-fluoro-2-methyl-pyridin-3-yl)-3-methyl-1,3-dihydro-imidazo[4,5-c]quinolin-2-one]"
4,14.8,"CNC(=O)c1ccc(-c2ccc3ncc4c(c3c2)n(-c2cccnc2C)c(=O)n4C)cc1 [Example 2.4, N-Methyl-4-[3-methyl-1-(2-methyl-pyridin-3-yl)-2-oxo-2,3-dihydro-1H-imidazo[4,5-c]quinolin-8-yl]-benzamide]"
5,96.6,"COc1cc(-c2ccc3ncc4c(c3c2)n(-c2ccc(F)nc2C)c(=O)n4C)cnc1CO [Example 7.10, 1-(6-Fluoro-2-methyl-pyridin-3-yl)-8-(6-hydroxymethyl-5-methoxy-pyridin-3-yl)-3-methyl-1,3-dihydro-imidazo[4,5-c]quinolin-2-one]"
6,20.4,"CCOc1ccc(-c2ccc3ncc4c(c3c2)n(-c2ccc(N3CCC(O)C3)nc2C)c(=O)n4C)cn1 (stereo not shown) [Example 27.4, 8-(6-Ethoxy-pyridin-3-yl)-1-[6-(3-hydroxy-pyrrolidin-1-yl)-2-methyl-pyridin-3-yl]-3-methyl-1,3-dihydro-imidazo[4,5-c]quinolin-2-one]"
7,1100,"Cc1nc(N2CC(O)C2)ccc1-n1c(=O)n(C)c2cnc3ccc(-c4cncc(C(C)(C)O)c4)cc3c21 [Example 29.1, 1-[6-(3-Hydroxy-azetidin-1-yl)-2-methyl-pyridin-3-yl]-8-[5-(1-hydroxy-1-methyl-ethyl)-pyridin-3-yl]-3-methyl-1,3-dihydro-imidazo[4,5-c]quinolin-2-one]"
8,9.49,"Cc1ncccc1-n1c(=O)n(C)c2cnc3ccc(-c4cnc5[nH]ccc5c4)cc3c21 [Example 2.8, 3-Methyl-1-(2-methyl-pyridin-3-yl)-8-(1H-pyrrolo[2,3-b]pyridin-5-yl)-1,3-dihydro-imidazo[4,5-c]quinolin-2-one]"
9,212,"COc1ccc(-n2c(=O)n(C)c3cnc4ccc(-c5cnc(C(OC)OC)c(OC)c5)cc4c32)c(OC)n1 [Example 8.13, 8-(6-Dimethoxymethyl-5-methoxy-pyridin-3-yl)-1-(2,6-dimethoxy-pyridin-3-yl)-3-methyl-1,3-dihydro-imidazo[4,5-c]quinolin-2-one]"
10,278,"COCc1ncc(-c2ccc3ncc4c(c3c2)n(-c2ccc(F)nc2C)c(=O)n4C)cc1OC [Example 7.7, 1-(6-Fluoro-2-methyl-pyridin-3-yl)-8-(5-methoxy-6-methoxymethyl-pyridin-3-yl)-3-methyl-1,3-dihydro-imidazo[4,5-c]quinolin-2-one]"
11,200,"COc1cc(-c2ccc3ncc4c(c3c2)n(-c2ccc(N3CC[C@H](O)C3)nc2C)c(=O)n4C)cnc1CO [Example 32.7, 8-(6-Hydroxymethyl-5-methoxy-pyridin-3-yl)-1-[6-((S)-3-hydroxy-pyrrolidin-1-yl)-2-methyl-pyridin-3-yl]-3-methyl-1,3-dihydro-imidazo[4,5-c]quinolin-2-one]"
12,17.1,"COc1ccc(-n2c(=O)n(C)c3cnc4ccc(-c5cncc(N6CCC6)c5)cc4c32)c(OC)n1 [Example 8.11, 8-(5-Azetidin-1-yl-pyridin-3-yl)-1-(2,6-dimethoxy-pyridin-3-yl)-3-methyl-1,3-dihydro-imidazo[4,5-c]quinolin-2-one]"
13,237,"COc1cc(-c2ccc3ncc4c(c3c2)n(-c2ccc(N)nc2C)c(=O)n4C)cnc1CO [Example 30.1, 1-(6-Amino-2-methyl-pyridin-3-yl)-8-(6-hydroxymethyl-5-methoxy-pyridin-3-yl)-3-methyl-1,3-dihydro-imidazo[4,5-c]quinolin-2-one]"
14,139,"COCc1ncc(-c2ccc3ncc4c(c3c2)n(-c2cccnc2C)c(=O)n4C)cc1OC [Example 2.30, 8-(5-Methoxy-6-methoxymethyl-pyridin-3-yl)-3-methyl-1-(2-methyl-pyridin-3-yl)-1,3-dihydro-imidazo[4,5-c]quinolin-2-one]"
15,20,"CNc1ncc(-c2ccc3ncc4c(c3c2)n(-c2ccc(N3CC[C@@H](O)C3)nc2C)c(=O)n4C)cn1 [Example 34.1, 1-[6-((R)-3-Hydroxy-pyrrolidin-1-yl)-2-methyl-pyridin-3-yl]-3-methyl-8-(2-methylamino-pyrimidin-5-yl)-1,3-dihydro-imidazo[4,5-c]quinolin-2-one]"
16,56.7,"COc1ccc(-n2c(=O)n(C)c3cnc4ccc(-c5cnc(CO)c(OC)c5)cc4c32)c(OC)n1 [Example 8.14, 1-(2,6-Dimethoxy-pyridin-3-yl)-8-(6-hydroxymethyl-5-methoxy-pyridin-3-yl)-3-methyl-1,3-dihydro-imidazo[4,5-c]quinolin-2-one]"
17,14.1,"Cn1c(=O)n(-c2cccnc2F)c2c3cc(-c4cnc5[nH]ccc5c4)ccc3ncc21 [Example 6.3, 1-(2-Fluoro-pyridin-3-yl)-3-methyl-8-(1H-pyrrolo[2,3-b]pyridin-5-yl)-1,3-dihydro-imidazo[4,5-c]quinolin-2-one]"
18,44.1,"COc1cc(-c2ccc3ncc4c(c3c2)n(-c2ccc(N3CC(F)(F)C3)nc2C)c(=O)n4C)cnc1CO [Example 24.4, 1-[6-(3,3-Difluoro-azetidin-1-yl)-2-methyl-pyridin-3-yl]-8-(6-hydroxymethyl-5-methoxy-pyridin-3-yl)-3-methyl-1,3-dihydro-imidazo[4,5-c]quinolin-2-one]"
19,44.5,"COc1cc(-c2ccc3ncc4c(c3c2)n(-c2ccc(N3CCC(OC)C3)nc2C)c(=O)n4C)cnc1CO (stereo not shown) [Example 28.3, 8-(6-Hydroxymethyl-5-methoxy-pyridin-3-yl)-1-[6-(3-methoxy-pyrrolidin-1-yl)-2-methyl-pyridin-3-yl]-3-methyl-1,3-dihydro-imidazo[4,5-c]quinolin-2-one]"
20,17.6,"COc1cc(-c2ccc3ncc4c(c3c2)n(-c2ccc(N3CCCC3)nc2C)c(=O)n4C)cnc1CO [Example 25.4, 8-(6-Hydroxymethyl-5-methoxy-pyridin-3-yl)-3-methyl-1-(2-methyl-6-pyrrolidin-1-yl-pyridin-3-yl)-1,3-dihydro-imidazo[4,5-c]quinolin-2-one]"
21,13,"CNc1ncc(-c2ccc3ncc4c(c3c2)n(-c2ccc(N3CC[C@H](O)C3)nc2C)c(=O)n4C)cc1Cl [Example 32.4, 8-(5-Chloro-6-methylamino-pyridin-3-yl)-1-[6-((S)-3-hydroxy-pyrrolidin-1-yl)-2-methyl-pyridin-3-yl]-3-methyl-1,3-dihydro-imidazo[4,5-c]quinolin-2-one]"
22,5.27,"CCNc1cc(-c2ccc3ncc4c(c3c2)n(-c2ccc(N3CC(F)(F)C(F)(F)C3)nc2C)c(=O)n4C)cnc1CO [Example 35.2, 8-(5-Ethylamino-6-hydroxymethyl-pyridin-3-yl)-3-methyl-1-[2-methyl-6-(3,3,4,4-tetrafluoro-pyrrolidin-1-yl)-pyridin-3-yl]-1,3-dihydro-imidazo[4,5-c]quinolin-2-one]"
23,197,"Cc1nc(N2CCC(O)C2)ccc1-n1c(=O)n(C)c2cnc3ccc(-c4cncc(C(C)(C)O)c4)cc3c21 (stereo not shown) [Example 27.5, 8-[5-(1-Hydroxy-1-methyl-ethyl)-pyridin-3-yl]-1-[6-(3-hydroxy-pyrrolidin-1-yl)-2-methyl-pyridin-3-yl]-3-methyl-1,3-dihydro-imidazo[4,5-c]quinolin-2-one]"
24,< 4.57,"CCNc1cc(-c2ccc3ncc4c(c3c2)n(-c2ccc(N3CCCC3)nc2C)c(=O)n4C)cnc1CO [Example 25.5, 8-(5-Ethylamino-6-hydroxymethyl-pyridin-3-yl)-3-methyl-1-(2-methyl-6-pyrrolidin-1-yl-pyridin-3-yl)-1,3-dihydro-imidazo[4,5-c]quinolin-2-one]"
25,7.4,"CNc1ncc(-c2ccc3ncc4c(c3c2)n(-c2ccc(N3CCC(OC)C3)nc2C)c(=O)n4C)cn1 (stereo not shown) [Example 28.2, 1-[6-(3-Methoxy-pyrrolidin-1-yl)-2-methyl-pyridin-3-yl]-3-methyl-8-(2-methylamino-pyrimidin-5-yl)-1,3-dihydro-imidazo[4,5-c]quinolin-2-one]"
